{"source": "ChEMBL document CHEMBL1147828", "about": "“Discovery of indole-containing tetracycles as a new scaffold for androgen receptor ligands” (Bioorg Med Chem Lett, 2006)", "note": "Activity calls are given as the source filed them. No cut-off for these calls is given here.", "data": [{"molecular_target": "T1, Androgen receptor (Rattus norvegicus) (UniProt P15207)", "T1 sequence (whole entry)": "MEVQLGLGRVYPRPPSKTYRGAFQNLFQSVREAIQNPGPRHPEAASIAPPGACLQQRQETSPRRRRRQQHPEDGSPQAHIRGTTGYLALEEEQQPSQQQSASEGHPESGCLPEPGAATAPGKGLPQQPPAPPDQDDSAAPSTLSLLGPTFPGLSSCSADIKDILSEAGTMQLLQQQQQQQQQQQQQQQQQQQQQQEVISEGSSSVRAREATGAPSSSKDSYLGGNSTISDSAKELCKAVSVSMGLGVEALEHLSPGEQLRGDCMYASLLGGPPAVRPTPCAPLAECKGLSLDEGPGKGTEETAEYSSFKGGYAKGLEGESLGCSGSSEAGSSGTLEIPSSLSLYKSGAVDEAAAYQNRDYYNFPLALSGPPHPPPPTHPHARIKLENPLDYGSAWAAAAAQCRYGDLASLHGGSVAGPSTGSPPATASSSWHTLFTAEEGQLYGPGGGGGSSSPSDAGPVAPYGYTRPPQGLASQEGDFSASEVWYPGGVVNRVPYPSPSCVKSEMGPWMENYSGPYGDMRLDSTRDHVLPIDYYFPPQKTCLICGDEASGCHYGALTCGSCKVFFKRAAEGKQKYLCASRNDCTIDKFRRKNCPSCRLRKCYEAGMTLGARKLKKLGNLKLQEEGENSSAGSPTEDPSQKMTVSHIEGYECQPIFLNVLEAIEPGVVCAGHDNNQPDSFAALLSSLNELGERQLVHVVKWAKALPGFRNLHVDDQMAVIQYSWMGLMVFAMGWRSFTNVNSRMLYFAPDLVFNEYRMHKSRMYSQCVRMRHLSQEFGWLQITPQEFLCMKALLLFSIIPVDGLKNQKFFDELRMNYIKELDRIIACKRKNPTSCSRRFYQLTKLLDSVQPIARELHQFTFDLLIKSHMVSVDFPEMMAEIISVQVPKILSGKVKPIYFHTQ", "assay": "Inhibition of rat AR-mediated reporter gene expression in COS7 cells at 10 uM", "format": "cell-based", "settings": "COS-7", "units": {"inhibition": "%"}, "values": [{"smiles": "Cn1c2c(c3cc(F)ccc31)CSc1cc(F)ccc1-2", "inhibition": 48}]}, {"molecular_target": "T1, Androgen receptor (Rattus norvegicus)", "assay": "Inhibition of rat AR-mediated reporter gene expression in COS7 cells", "settings": "COS-7", "values": [{"smiles": "Cn1c2c(c3cc(O)ccc31)C[S+]([O-])c1ccccc1-2", "note": "(configuration not stated)", "Activity": "inactive"}, {"smiles": "CN1c2ccc(O)cc2C(=O)C2CCc3ccccc3C21", "note": "(configuration not stated)", "Activity": "inactive"}, {"smiles": "Cn1c2c(c3ccc(O)cc31)CCC1=CC(=O)CCC12C", "note": "(configuration not stated)", "Activity": "inactive"}, {"smiles": "Cn1c2c(c3cc(O)ccc31)CS(=O)(=O)c1ccccc1-2", "Activity": "inactive"}, {"smiles": "Cn1c2c(c3ccccc31)CSc1ccccc1-2", "Activity": "inactive"}, {"smiles": "CN1Cc2c(n(C)c3cc(O)ccc23)-c2ccccc21", "Activity": "inactive"}, {"smiles": "COc1ccc2c(c1)c1c(n2C)-c2ccccc2SC1", "Activity": "inactive"}, {"smiles": "Cn1c2c(c3ccc(O)cc31)SCc1ccccc1-2", "Activity": "inactive"}, {"smiles": "Cn1c2c(c3cc(C#N)ccc31)CSc1ccccc1-2", "Activity": "inactive"}, {"smiles": "Cn1c2c(c3cc(Br)ccc31)CSc1ccccc1-2", "Activity": "inactive"}, {"smiles": "CN1C(=O)CCC2(C)c3c(c4cc(O)ccc4n3C)CCC12", "note": "(configuration not stated)", "Activity": "inactive"}, {"smiles": "Oc1ccc2nc3c(c(O)c2c1)CCc1ccccc1-3", "Activity": "inactive"}, {"smiles": "CN(C)CCn1c2c(c3cc(O)ccc31)CSc1ccccc1-2", "Activity": "inactive"}, {"smiles": "Cc1ccc2c(c1)c1c(n2C)-c2ccccc2SC1", "Activity": "inactive"}]}, {"molecular_target": "T2, Androgen receptor (Rattus norvegicus, UniProt P15207)", "T2 sequence (P15207 whole entry)": "T1 sequence (whole entry)", "assay": "not given", "settings": "not given", "units": {"IC50": "nM"}, "values": [{"smiles": "Cn1c2c(c3cc(O)ccc31)CCc1ncccc1-2", "IC50": 29}, {"smiles": "Cn1c2c(c3cc(O)ccc31)CSc1cc(O)ccc1-2", "IC50": 2100}, {"smiles": "Cn1c2c(c3cc(O)ccc31)CSc1ccccc1-2", "IC50": 110}, {"smiles": "Cn1c2c(c3cc(O)ccc31)CSc1ncccc1-2", "IC50": 52}, {"smiles": "CCn1c2c(c3cc(O)ccc31)CSc1ccccc1-2", "IC50": 2300}, {"smiles": "Cn1c2c(c3ccc(O)cc31)C(C)(C)Sc1cc(O)ccc1-2", "IC50": 3400}, {"smiles": "Cn1c2c(c3cc(O)ccc31)CSc1cc(Br)ccc1-2", "IC50": 2800}, {"smiles": "Cn1c2c(c3cccc(O)c31)CSc1cc(F)ccc1-2", "IC50": 3800}, {"smiles": "Cn1c2c(c3cc(O)ccc31)CSc1cc(F)ccc1-2", "IC50": 630}, {"smiles": "Cn1c2c(c3ccc(O)cc31)CCSc1ccccc1-2", "IC50": 5000}, {"smiles": "CC(=O)n1c2c(c3cc(O)ccc31)CSc1ccccc1-2", "IC50": 1000}, {"smiles": "Oc1ccc2[nH]c3c(c2c1)CSc1ccccc1-3", "IC50": 4500}, {"smiles": "Cn1c2c(c3ccc(O)cc31)CCc1ccccc1-2", "IC50": 30}, {"smiles": "Cn1c2c(c3cc(Cl)ccc31)CSc1ccccc1-2", "IC50": 1500}, {"smiles": "Cn1c2c(c3cc(F)ccc31)CSc1cc(C(F)(F)F)ccc1-2", "IC50": 2800}, {"smiles": "Cn1c2c(c3ccc(O)cc31)CCCc1ccccc1-2", "IC50": 920}, {"smiles": "Cn1c2c(c3cc(O)ccc31)CCc1cnccc1-2", "IC50": 930}, {"smiles": "Cn1c2c(c3ccc(O)cc31)CSc1ccccc1-2", "IC50": 130}, {"smiles": "Cn1c2c(c3cc(F)ccc31)CSc1ccccc1-2", "IC50": 3700}, {"smiles": "CC(=O)Oc1ccc2c(c1)c1c(n2C)-c2ccccc2SC1", "IC50": 880}, {"smiles": "Cn1ccc2c1CCc1c-2n(C)c2ccc(O)cc12", "IC50": 370}, {"smiles": "Cn1c2c(c3cc(O)ccc31)CSc1ccc(F)cc1-2", "IC50": 110}, {"smiles": "COc1ccc2c(c1)SCc1c-2n(C)c2ccc(O)cc12", "IC50": 3000}, {"smiles": "Cn1c2c(c3cc(O)ccc31)CCc1sccc1-2", "IC50": 580}]}, {"molecular_target": "T1, Androgen receptor (Rattus norvegicus)", "assay": "Inhibition of rat AR-mediated reporter gene expression in COS7 cells at 3 uM", "format": "cell-based", "settings": "COS-7", "units": {"inhibition": "%"}, "values": [{"smiles": "Cn1c2c(c3cc(O)ccc31)CCc1nccnc1-2", "inhibition": 33}, {"smiles": "Cn1c2c(c3cc(O)ccc31)CCC1=CC(=O)CCC12C", "note": "(configuration not stated)", "inhibition": 42}, {"smiles": "Cn1c2c(c3ccc(O)cc31)CCc1ncccc1-2", "inhibition": 29}]}]}
